The target of test [1] is T1, human Smo (amino acids 181-787) (Homo sapiens, UniProt Q99835).
T1 construct: expressed in transfected cells; membrane preparation
Description: Smo radioligand competition binding assay (displacement of 3H-PF-03451358 from HEK293 membranes). The conditions noted are these: for inhibition at 0.05 µM: 0.05 μM test compound, displacement of 3H-PF-03451358, read-out: SMO % inh. @ 0.05 μM; for IC50: radioligand competition binding. In outline: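 Displacement of 3 nM tritiated PF-03451358 measured by filtration and scintillation counting after 2 h at room temperature, using 40 μg/well HEK293 membranes bearing cell-surface Smo 181-787, pH 7.5 buffer. Specific binding defined against 30 μM unlabelled ligand; IC50 via variable-slope sigmoidal fit.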

The test system of another test is Gli-Luc/MEF cells (Smo). Description: Gli-Luc/MEF assay (Shh-stimulated luciferase reporter under the Gli response element). Format: cell-based, mouse. The conditions noted are these: Mus musculus, MEF, 48 h. The method, boiled down: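 IC50 derived from luminescence (Bright-Glo) after 48 h at 37° C, 5% CO2, with compound at […] (3-fold dilutions) added together with mouse Shh at 2 μg/mL final. Cells: MEFs from Gli-Luc transgenic mice.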

T1 sequence (Q99835 181-787): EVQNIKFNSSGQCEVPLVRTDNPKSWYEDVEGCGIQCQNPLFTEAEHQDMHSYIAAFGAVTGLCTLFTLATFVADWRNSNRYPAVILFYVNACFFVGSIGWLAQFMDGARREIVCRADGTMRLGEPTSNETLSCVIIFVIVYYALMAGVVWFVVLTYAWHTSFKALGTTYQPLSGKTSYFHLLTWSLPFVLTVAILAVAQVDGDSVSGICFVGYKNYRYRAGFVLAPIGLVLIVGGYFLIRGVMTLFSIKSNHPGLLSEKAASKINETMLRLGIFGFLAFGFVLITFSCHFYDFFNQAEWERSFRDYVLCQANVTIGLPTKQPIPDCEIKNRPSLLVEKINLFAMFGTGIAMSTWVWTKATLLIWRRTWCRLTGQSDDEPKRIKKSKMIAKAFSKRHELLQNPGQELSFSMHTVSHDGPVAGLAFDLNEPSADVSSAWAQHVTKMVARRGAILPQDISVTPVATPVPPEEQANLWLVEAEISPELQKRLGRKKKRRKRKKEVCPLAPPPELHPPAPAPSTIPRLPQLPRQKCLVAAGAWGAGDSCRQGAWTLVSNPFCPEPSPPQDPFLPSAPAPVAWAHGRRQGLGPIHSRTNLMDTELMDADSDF

On to `CCNC(=O)N1CCN(c2cc(-c3nc4ccccc4n3C)c(F)cn2)CC1` [Example D-3, N-ethyl-4-[5-fluoro-4-(1-methyl-1H-benzimidazol-2-yl)pyridin-2-yl]piperazine-1-carboxamide], for which, in test [1], the inhibition at 0.05 µM was determined as 98% and the IC50 turned out to be 8 nM. Also, the IC50 in the test with Gli-Luc/MEF cells (Smo) was found to be 10 nM.

With `CCC(=O)N1CCN(c2cc(-c3nc4ccccc4n3C)c(F)cn2)CC1` [Example D-4, 2-[5-fluoro-2-(4-propionylpiperazin-1-yl)pyridin-4-yl]-1-methyl-1H-benzimidazole], in test [1], the inhibition at 0.05 µM is 98% and the 50% inhibitory concentration (IC50) stood at 19 nM. In addition, the IC50 with Gli-Luc/MEF cells (Smo) was determined as 20 nM.

Take `CCS(=O)(=O)N1CCN(c2cc(-c3nc4ccccc4n3C)c(F)cn2)CC1` [Example D-5, 2-{2-[4-(ethylsulfonyl)piperazin-1-yl]-5-fluoropyridin-4-yl}-1-methyl-1H-benzimidazole]: the inhibition at 0.05 µM in test [1] was 97%. In addition, the IC50 in test [1] is 18 nM; in the test on Gli-Luc/MEF cells (Smo), 17 nM.

On to `Cn1c(-c2cc(N3CCN(S(C)(=O)=O)CC3)ncc2F)nc2ccccc21` [Example D-6, 2-{5-fluoro-2-[4-(methylsulfonyl)piperazin-1-yl]pyridin-4-yl}-1-methyl-1H-benzimidazole], for which the inhibition at 0.05 µM in test [1] came out at 97%. Also, the IC50 is 12 nM in test [1] and 22 nM in the test with Gli-Luc/MEF cells (Smo).

For `CNC(=O)N1CCN(c2cc(-c3nc4ccccc4n3C)c(F)cn2)CC1` [Example D-7, 4-[5-fluoro-4-(1-methyl-1H-benzimidazol-2-yl)pyridin-2-yl]-N-methylpiperazine-1-carboxamide], in test [1], the inhibition at 0.05 µM was 88% and the IC50 worked out at 47 nM. The same compound came in with an IC50 in the test on Gli-Luc/MEF cells (Smo) of 54 nM.

In the case of `CCNC(=O)NC1CCN(c2cc(-c3nc4ccccc4n3C)c(F)cn2)CC1` [Example D-8, 1-ethyl-3-{1-[5-fluoro-4-{1-methyl-1H-benzimidazol-2-yl)pyridin-2-yl]piperidin-4-yl}urea], the inhibition at 0.05 µM in test [1] was determined as 95%. Also, the IC50 (in test [1]; in the test on Gli-Luc/MEF cells (Smo)) was 6 nM each time.

In the case of `CCS(=O)(=O)NC1CCN(c2cc(-c3nc4ccccc4n3C)c(F)cn2)CC1` [Example D-9, N-{1-[5-fluoro-4-(1-methyl-1H-benzimidazol-2-yl)pyridin-2-yl]piperidin-4-yl}ethanesulfonamide], in test [1], the inhibition at 0.05 µM amounted to 99%. Besides, the IC50 in test [1] worked out at 5 nM; in the test with Gli-Luc/MEF cells (Smo), 3.9 nM.

In the case of `CN(C1CCN(c2cc(-c3nc4ccccc4n3C)c(F)cn2)CC1)S(C)(=O)=O` [Example D-10, N-{1-[5-fluoro-4-(1-methyl-1H-benzimidazol-2-yl)pyridin-2-yl]piperidin-4-yl}-N-methylmethanesulfonamlde], in test [1], the inhibition at 0.05 µM worked out at 102% and the IC50 is 7 nM. Further, the midpoint of inhibition with Gli-Luc/MEF cells (Smo), the IC50, lay at 4 nM.

Regarding `Cn1c(-c2cc(N3CCC(NS(C)(=O)=O)CC3)ncc2F)nc2ccccc21` [Example D-11, N-{1-[5-fluoro-4-(1-melhyl-1H-benzimidazol-2-yl)pyridin-2-yl]piperidin-4-yl}methanesulfonamide], the inhibition at 0.05 µM in test [1] worked out at 98%. The IC50 amounted to 6 nM in test [1] and 4.2 nM in the test on Gli-Luc/MEF cells (Smo).

In the case of `COC(=O)NC1CCN(c2cc(-c3nc4ccccc4n3C)c(F)cn2)CC1` [Example D-12, methyl {1-[5-fluoro-4-(1-methy-1H-benzimidazol-2-yl)pyridin-2-yl]plpetidin-4-yl}carbamate], in test [1], the inhibition at 0.05 µM was determined as 96% and the IC50 is 8 nM. Moreover, the IC50 in the test on Gli-Luc/MEF cells (Smo) is 7.7 nM.

For the compound `CNC(=O)NC1CCN(c2cc(-c3nc4ccccc4n3C)c(F)cn2)CC1` [Example D-13, 1-{1-[5-fluoro-4-(1-methyl-1H-benzimidazol-2-yl)pyridin-2-yl]piperidin-4-yl}-3-methylurea], in test [1], the inhibition at 0.05 µM is 97% and the IC50 was 23 nM. Moreover, inhibition with Gli-Luc/MEF cells (Smo) was half-maximal at 13.4 nM (IC50).

For `CC(=O)NC1CCN(c2cc(-c3nc4ccccc4n3C)c(F)cn2)CC1` [Example D-14, N-{1-[5-fluoro-4-(1-methyl-1H-benzimidazol-2-yl)pyridin-2-yl]piperidin-4-yl}acetamide], in test [1], the inhibition at 0.05 µM worked out at 97% and the IC50 was 19 nM. This compound returned an IC50 with Gli-Luc/MEF cells (Smo) of 17.2 nM.

With `Cn1c(-c2cc(N3CCN(S(=O)(=O)CCO)CC3)ncc2F)nc2ccccc21` [Example D-15, 2-({4-[5-fluoro-4-(1-methyl-1H-benzimidazol-2-yl)pyridin-2-yl]piperazin-1-yl}sulfonyl)ethanol], in test [1], the inhibition at 0.05 µM stood at 101% and the IC50 amounted to 19 nM. In addition, the IC50 in the test with Gli-Luc/MEF cells (Smo) was 11 nM.

Consider `Cn1c(-c2cc(N3CCN(S(=O)(=O)CC(C)(C)O)CC3)ncc2F)nc2ccccc21` [Example D-16, 1-({4-[5-fluoro-4-(1-methyl-1H-benzimidazol-2-yl)pyridin-2-yl]piperazin-1-yl}sulfonyl)-2-methylpropan-2-ol], for which, in test [1], the inhibition at 0.05 µM amounted to 94% and the IC50 is 9 nM. The IC50 in the test with Gli-Luc/MEF cells (Smo) was 3 nM.

As to `Cn1c(-c2cc(N3CCN(C(=O)CO)CC3)ncc2F)nc2ccccc21` [Example D-17, 1-{4-[5-fluoro-4-(1-methyl-1H-benzimidazol-2-yl)pyridin-2-yl]piperazin-1-yl}-2-hydroxyethanone], in test [1], the inhibition at 0.05 µM was determined as 96% and the IC50 came to 15 nM. Also, in the test on Gli-Luc/MEF cells (Smo), the IC50 was determined as 13 nM.

Regarding `Cn1c(-c2cc(N3CCN(C(=O)CCS(C)(=O)=O)CC3)ncc2F)nc2ccccc21` [Example D-18, 1-{4-[5-fluoro-4-(1-methyl-1H-benzimidazol-2-yl)pyridin-2-yl]piperazin-1-yl}-3-(methylsulfonyl)propan-1-one], in test [1], the inhibition at 0.05 µM turned out to be 100% and the IC50 turned out to be 11 nM. Moreover, the IC50 in the test with Gli-Luc/MEF cells (Smo) amounted to 3 nM.

For `Cc1cnc(N2CCC(NS(C)(=O)=O)CC2)cc1-c1nc2ccccc2n1C` [Example E-1, N-{1-[5-methyl-4-(1-methyl-1H-benzimidazol-2-yl)pyridin-2-yl]piperidin-4-yl}methanesulfonamide], in test [1], the inhibition at 0.05 µM turned out to be 98% and the IC50 stood at 19 nM. The IC50 with Gli-Luc/MEF cells (Smo) was found to be 19.8 nM.

As for `Cc1cnc(N2CCC(CS(C)(=O)=O)CC2)cc1-c1nc2ccccc2n1C` [Example E-2, 1-methyl-2-(5-methyl-2-{4-[(methylsulfonyl)methyl]piperidin-1-yl}pyridin-4-yl)-1H-benzimidazole], in test [1], the inhibition at 0.05 µM amounted to 99% and the IC50 amounted to 18 nM. In addition, the midpoint of inhibition in the test on Gli-Luc/MEF cells (Smo), the IC50, lay at 20.9 nM.

Regarding `Cc1cnc(N2CCN(S(C)(=O)=O)CC2)cc1-c1nc2ccccc2n1C` [Example E-3, 1-methyl-2-{5-methyl-2-[4-(methylsulfonyl)piperazin-1-yl]pyridin-4-yl}-1H-benzimidazole], in test [1], the inhibition at 0.05 µM stood at 97% and the IC50 came out at 33 nM. Besides, the midpoint of inhibition with Gli-Luc/MEF cells (Smo), the IC50, lay at 38.1 nM.

For `CC(=O)N1CCN(c2cc(-c3nc4ccccc4n3C)c(C)cn2)CC1` [Example E-4, 2-[2-(4-acetylpiperazin-1-yl)-5-methylpyridin-4-yl]-1-methyl-1H-benzimidazole], in test [1], the inhibition at 0.05 µM is 92% and the IC50 was determined as 61 nM. Further, the IC50 with Gli-Luc/MEF cells (Smo) was determined as 52.5 nM.

Consider `Cc1cnc(N2CCC(S(C)(=O)=O)CC2)cc1-c1nc2ccccc2n1C` [Example E-5, 1-methyl-2-{5-methyl-2-[4-(methylsulfonyl)piperidin-1-yl]pyridin-4-yl)-1H-benzimidazole], for which, in test [1], the inhibition at 0.05 µM stood at 89% and the IC50 worked out at 59 nM. Also, the IC50 in the test on Gli-Luc/MEF cells (Smo) came to 58.9 nM.

As for `Cc1ccc(N2CCC(S(C)(=O)=O)CC2)nc1-c1nc2ccccc2n1C` [Example E-6, 1-methyl-2-{3-methyl-6-[4-(methylsulfonyl)piperidin-1-yl]pyridin-2-yl}-1H-benzimidazole], the inhibition at 0.05 µM in test [1] was determined as 89%. For the same compound, the IC50 in test [1] amounted to 51 nM; in the test on Gli-Luc/MEF cells (Smo), 61.6 nM.

For the origin of these results see patent publication US20120157471A1, “BENZIMIDAZOLE DERIVATIVES” (PFIZER INC., priority 2009, published 2012).
